Assay results taken from patent US20230135894A1, “MK2 DEGRADERS AND USES THEREOF” (Kymera Therapeutics, Inc., priority 2021, published 2023).
One block for each compound: values may come before it.

Tests used:
MK2 [1] = molecular target: T1, MK2 (Homo sapiens, UniProt P49137); test: MK2 degradation in human SW1353 cells (MSD, 24 h); assay type: cell-based; design: endogenous in cells; host or cells: SW-1353 (ATCC HTB-94); key to MK2 MSD SW1353 degradation 24 h GMean External Abs DC50: A (<0.001 μM); B (0.001-0.01 μM); C (0.01-0.1 μM); D (>0.1 μM); —: “-”=not tested or inactive; settings: for Dmax: read-out: MK2 MSD SW 1353 24 h Dmax %; for DC50: read-out: MK2 MSD SW1353 degradation 24 h GMean External Abs DC50
T1 sequence (P49137 whole entry): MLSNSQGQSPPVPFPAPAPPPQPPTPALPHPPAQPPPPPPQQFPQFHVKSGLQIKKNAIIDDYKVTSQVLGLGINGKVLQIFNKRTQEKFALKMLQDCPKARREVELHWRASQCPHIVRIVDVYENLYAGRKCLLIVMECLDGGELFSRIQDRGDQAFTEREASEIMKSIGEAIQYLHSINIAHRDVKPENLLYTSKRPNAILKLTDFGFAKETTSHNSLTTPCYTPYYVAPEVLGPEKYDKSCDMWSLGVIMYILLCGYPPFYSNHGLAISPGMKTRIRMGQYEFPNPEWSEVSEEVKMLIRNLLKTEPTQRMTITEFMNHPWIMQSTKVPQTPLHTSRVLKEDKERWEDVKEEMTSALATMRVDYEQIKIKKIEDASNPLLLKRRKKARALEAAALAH
Summary of the method: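 SW1353 chondrosarcoma cells were treated with up to 10-point serial dilutions (0.1% DMSO) for 24 h at 37 °C, then lysed in RIPA buffer. MK2 levels were quantified by MSD sandwich immunoassay; DC50 came from a 4-parameter logistic fit normalised to DMSO-treated cells (high) and lysis buffer (low).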

MK2 [2] = molecular target: T1, MK2; test: MK2 degradation in human THP-1 monocytic cells (MSD, 24 h); assay type: cell-based; design: endogenous in cells; key to MK2 MSD THP-1 degradation 24 h GMean External Abs DC50: A (<0.001 μM); B (0.001-0.01 μM); C (0.01-0.1 μM); D (>0.1 μM); —: “-”=not tested or inactive; settings: for Dmax: THP-1, THP-1 cells; for DC50: read-out: MK2 MSD THP-1 degradation 24 h GMean External Abs DC50
Summary of the method: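 THP-1 cells (200,000/well) treated 24 h at 37 °C with compound dilution series (up to 10 points, 0.1% DMSO). MK2 in RIPA lysates quantified by MSD sandwich immunoassay. DC50 from 4-parameter logistic fit, DMSO-treated cells as high and lysis buffer as low signal.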

SMILES: Cn1c(=O)n(C2CCC(=O)NC2=O)c2ccc(N3CCC(CN4CCN(c5ccc(-c6cc(-c7cc8c([nH]7)C7(CC7)CNC8=O)ccn6)cc5)CC4)CC3)cc21 (centres unmarked) [Compound I-244]
- Dmax (MK2 [1]): > 75%
- DC50 (MK2 [1]): < 1 nM
- Dmax (MK2 [2]): > 75%
- DC50 (MK2 [2]; THP-1 cells): < 1 nM

SMILES: C[C@@H]1CNc2c(sc3ccc4nc(N5C[C@H]6C[C@@H]5CN6CC5CCN(c6cccc7c6n(C)c(=O)n7C6CCC(=O)NC6=O)CC5)ccc4c23)C(=O)N1 (some centres unmarked) [Compound I-182]
- MK2 MSD SW1353 degradation 24 h GMean External Abs DC50 (MK2 [1]): —
- Dmax (MK2 [1]): < 50%
- Dmax (MK2 [2]): < 50%
- MK2 MSD THP-1 degradation 24 h GMean External Abs DC50 (MK2 [2]; THP-1 cells): —

SMILES: C[C@@H]1CNc2c(sc3ccc4nc(-c5cncc(N6CCN(C(=O)COCCOCCc7cccc8c7n(C)c(=O)n8C7CCC(=O)NC7=O)CC6)c5)ccc4c23)C(=O)N1 (some centres unmarked) [Compound I-100]
- Dmax (MK2 [1]): > 75%
- DC50 (MK2 [1]): 1 to 10 nM
- Dmax (MK2 [2]): > 75%
- DC50 (MK2 [2]; THP-1 cells): 1 to 10 nM

SMILES: O=C1CCN(c2cncc3c(N4CCC(CN5CCN(c6ccc(-c7cc(-c8cc9c([nH]8)C8(CC8)CNC9=O)ccn7)cc6)CC5)CC4)cccc23)C(=O)N1 [Compound I-211]
- Dmax (MK2 [1]): > 75%
- DC50 (MK2 [1]): 10 to 100 nM
- Dmax (MK2 [2]): 50 to 75%
- DC50 (MK2 [2]; THP-1 cells): 10 to 100 nM

SMILES: CN1CCc2[nH]c(-c3ccnc(-c4ccc(N5CCN(CC6CCN(c7ccc8c(c7)n(C)c(=O)n8C7CCC(=O)NC7=O)CC6)CC5)cc4)c3)cc2C1=O (centres unmarked) [Compound I-450]
- Dmax (MK2 [1]): < 50%
- DC50 (MK2 [1]): > 100 nM
- Dmax (MK2 [2]): < 50%
- DC50 (MK2 [2]; THP-1 cells): > 100 nM

SMILES: C[C@@H]1CNc2c(sc3ccc4nc(N5C[C@H]6CC[C@@H]5CN6CC5CCN(c6cccc7c6n(C)c(=O)n7C6CCC(=O)NC6=O)CC5)ccc4c23)C(=O)N1 (some centres unmarked) [Compound I-452]
- Dmax (MK2 [1]): 50 to 75%
- DC50 (MK2 [1]): 1 to 10 nM
- Dmax (MK2 [2]): 50 to 75%
- DC50 (MK2 [2]; THP-1 cells): 10 to 100 nM

SMILES: Cc1ccc(NC(=O)c2cccc(C(F)(F)F)c2)cc1N1Cc2cnc(Nc3ccc(N4CCN(CCCCC(=O)N[C@H](C(=O)N5C[C@H](O)C[C@H]5C(=O)N[C@@H](C)c5ccc(-c6scnc6C)cc5)C(C)(C)C)CC4)nc3)nc2N(C)C1=O [Compound I-463]
- Dmax (MK2 [1]): > 75%
- DC50 (MK2 [1]): 1 to 10 nM
- Dmax (MK2 [2]): > 75%
- DC50 (MK2 [2]; THP-1 cells): 1 to 10 nM

More lines, now with the values ahead:

- Dmax (MK2 [1]): > 75%
- DC50 (MK2 [1]): 1 to 10 nM
- Dmax (MK2 [2]): > 75%
- DC50 (MK2 [2]; THP-1 cells): 1 to 10 nM
SMILES: CCc1cc(-c2ccc3c(ccc4sc5c(c43)NC[C@@H](C)NC5=O)n2)cc(N2CCN(CC3CCN(c4ccc5c(c4)n(C)c(=O)n5C4CCC(=O)NC4=O)CC3)CC2)c1 (some centres unmarked) [Compound I-233]

- Dmax (MK2 [1]): > 75%
- DC50 (MK2 [1]): 1 to 10 nM
- Dmax (MK2 [2]): > 75%
- DC50 (MK2 [2]; THP-1 cells): 1 to 10 nM
SMILES: C[C@@H]1CNc2c(sc3ccc4nc(N5CCC(CN6CCN(c7ccc8c(c7)n(C)c(=O)n8C7CCC(=O)NC7=O)CC6)CC5)ccc4c23)C(=O)N1 (some centres unmarked) [Compound I-264]

- Dmax (MK2 [1]): > 75%
- DC50 (MK2 [1]): 1 to 10 nM
- Dmax (MK2 [2]): 50 to 75%
- DC50 (MK2 [2]; THP-1 cells): 1 to 10 nM
SMILES: C[C@@H]1CNc2c(sc3ccc4nc(N5CCCN(CCC6CCN(c7ccc8c(c7)n(C)c(=O)n8C7CCC(=O)NC7=O)CC6)CC5)ccc4c23)C(=O)N1 (some centres unmarked) [Compound I-444]

- Dmax (MK2 [1]): > 75%
- DC50 (MK2 [1]): < 1 nM
- Dmax (MK2 [2]): > 75%
- DC50 (MK2 [2]; THP-1 cells): < 1 nM
SMILES: C[C@@H]1CNc2c(sc3ccc4nc(-c5ccc(N6CCN(CC7CCN(c8ccc9c(c8)n(C)c(=O)n9C8CCC(=O)NC8=O)CC7)CC6)cc5)ccc4c23)C(=O)N1 (some centres unmarked) [Compound I-130]

- Dmax (MK2 [1]): < 50%
- DC50 (MK2 [1]): > 100 nM
- Dmax (MK2 [2]): < 50%
- DC50 (MK2 [2]; THP-1 cells): > 100 nM
SMILES: Cc1cc(N2CCN(CC3CCN(c4ccc5c(c4)n(C)c(=O)n5C4CCC(=O)NC4=O)CC3)CC2)ccc1-c1cc(-c2cc3c([nH]2)CCNC3=O)ccn1 (centres unmarked) [Compound I-229]

- Dmax (MK2 [1]): > 75%
- DC50 (MK2 [1]): 1 to 10 nM
- Dmax (MK2 [2]): > 75%
- DC50 (MK2 [2]; THP-1 cells): < 1 nM
SMILES: C[C@@H]1CNc2c(sc3ccc4nc(-c5ccc(N6CCC(CN7CCN(c8ccc9c(c8)n(C)c(=O)n9C8CCC(=O)NC8=O)CC7)CC6)cc5Cl)ccc4c23)C(=O)N1 (some centres unmarked) [Compound I-292]

- Dmax (MK2 [1]): > 75%
- DC50 (MK2 [1]): 1 to 10 nM
- Dmax (MK2 [2]): > 75%
- DC50 (MK2 [2]; THP-1 cells): < 1 nM
SMILES: C[C@@H]1CNc2c(sc3ccc4nc(-c5ccc(N6CCN(CC7CCN(c8ccc9c(c8)n(C)c(=O)n9C8CCC(=O)NC8=O)CC7)CC6)cc5F)ccc4c23)C(=O)N1 (some centres unmarked) [Compound I-289]
